How the values were obtained:
S1P3 = S1P3 (Homo sapiens (Human), UniProt Q99500); test: 35S-GTPγS binding, membranes from CHO cells expressing S1P3; format: biochemical; conditions: 60 min 30° C., read-out: S1P3 GTPgs EC50
Protocol: (§1) Receptor binding assay: Membranes were prepared from CHO cells expressing S1P1 or S1P3 for use in ligand and […] binding studies. Cells were suspended in 50 mM TRIS, pH 7.4, 2 mM EDTA, 250 mM Sucrose (buffer A) and 1× Complete protease inhibitor cocktail (Roche), and disrupted at 4° C. by nitrogen decompression using a cell disruption bomb (Parr Instrument). Following centrifugation at 1000 RPM for 10 min at 4° C., the supernatant was suspended in buffer A and centrifuged again at 19000 RPM for 60 min at 4° C. The pellet was then suspended in 10 mM HEPES, pH 7.4, 1 mM EDTA, 250 mM Sucrose (Buffer B), and 1× Complete EDTA-free protease inhibitor cocktail and homogenized using a potter. Membranes were flash frozen in liquid nitrogen and stored at −80° C. [33P]sphingosine 1-phosphate (3000 Ci/mmol; American Radiolabeled Chemicals, Inc.) was added to test compounds in DMSO. Membranes and WGA SPA beads (GE Healthcare) were added to give a final volume of 100 μl in 96-well plates with assay concentrations of 25 pM or 10 pM [33P]sphingosine 1-phosphate (respectively for S1P1 or S1P3), 50 mM HEPES, pH 7.5, 5 mM MgCl2, 100 mM NaCl, 0.4% fatty acid-free BSA, 1-5 μg/well of proteins and 100 μg/well of WGA SPA beads. Binding was performed for 60 min at room temperature on a shaker and bound radioactivity was measured on a PerkinElmer 1450 MicroBeta counter. Specific binding was calculated by subtracting remaining radioactivity in the presence of 1000-fold excess of unlabeled S1P. Binding data were analyzed using the GraphPad Prism program.
Measurements of ^35S-GTPγS Binding: Membranes (1 to 10 μg protein) prepared as described above, were incubated in 96-well Scintiplates (PerkinElmer) with test compounds diluted in DMSO, in 180 μl of 20 mM HEPES, pH 7.4, 10 mM MgCl2, 2 μg/well Saponin, 0.2% fatty acid free BSA (Assay buffer), 140 mM NaCl and 1.7 μM GDP. The assay was initiated with the addition of 20 μl of 1.5 nM [35S]-GTPγS (1100 Ci/mmol; GE Healthcare) in assay buffer. After 60 min incubation at 30° C. on a shaker, plates were centrifuged for 10 min at 2000 RPM. Supernatant was discarded and membrane bound radioactivity was measured on a PerkinElmer 1450 MicroBeta counter. Triplicate samples were averaged and expressed as % response relative to S1P activation in absence of compound (n=2).

S1P1 [1] = molecular target: T1, S1P1 (Homo sapiens (Human), UniProt P21453); test: Receptor binding assay, [33P]sphingosine 1-phosphate, membranes from CHO cells expressing S1P1; conditions: [33P]S1P 25 pM, SPA
T1 sequence (P21453 whole entry, species assumed): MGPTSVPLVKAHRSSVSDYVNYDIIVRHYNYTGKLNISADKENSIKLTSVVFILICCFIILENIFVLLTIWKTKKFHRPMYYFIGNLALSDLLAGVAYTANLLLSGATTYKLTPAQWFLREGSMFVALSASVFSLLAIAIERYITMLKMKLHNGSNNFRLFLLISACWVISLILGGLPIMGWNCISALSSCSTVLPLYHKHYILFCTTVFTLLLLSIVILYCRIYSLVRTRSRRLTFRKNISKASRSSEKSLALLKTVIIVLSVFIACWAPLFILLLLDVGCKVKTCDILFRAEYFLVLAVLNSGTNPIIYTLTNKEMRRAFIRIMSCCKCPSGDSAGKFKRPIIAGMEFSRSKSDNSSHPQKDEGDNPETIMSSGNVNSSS
Protocol: as §1

S1P1 [2] = molecular target: T1, S1P1; test: 35S-GTPγS binding, membranes from CHO cells expressing S1P1; format: biochemical; conditions: 60 min 30° C., read-out: S1P1 GTPgS EC50

Sequence of S1P3 (Q99500 whole entry, species assumed): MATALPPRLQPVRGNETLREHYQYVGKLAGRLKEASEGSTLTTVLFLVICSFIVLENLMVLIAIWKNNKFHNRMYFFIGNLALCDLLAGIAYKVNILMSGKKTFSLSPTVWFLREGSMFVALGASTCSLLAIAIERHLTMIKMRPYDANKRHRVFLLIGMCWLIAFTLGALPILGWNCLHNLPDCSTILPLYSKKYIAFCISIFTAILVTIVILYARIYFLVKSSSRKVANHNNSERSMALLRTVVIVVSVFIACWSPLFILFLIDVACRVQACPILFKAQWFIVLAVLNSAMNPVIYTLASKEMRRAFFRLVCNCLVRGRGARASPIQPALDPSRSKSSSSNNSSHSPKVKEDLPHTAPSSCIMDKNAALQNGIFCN

| SMILES | EC50 (S1P3) | Ki (S1P1 [1]) | EC50 (S1P1 [2]) |
| --- | --- | --- | --- |
| COc1ccc(F)cc1-c1noc(-c2ccc(N3CCCCC3C)c([N+](=O)[O-])c2)n1 (stereo not drawn) [Compound I32, 1-{4-[3-(5-fluoro-2-methoxyphenyl)-1,2,4-oxadiazol-5-yl]-2-nitrophenyl}-2-methylpiperidine] | 1700 nM | 1 nM | 2 nM |
| CC1CCCCN1c1ccc(-c2nc(-c3ccccc3OC(F)(F)F)no2)cc1C(F)(F)F (stereo not drawn) [Compound I34, 2-methyl-1-[4-{3-[2-(trifluoromethoxy)phenyl]-1,2,4-oxadiazol-5-yl}-2-(trifluoromethyl)phenyl]piperidine] | > 20000 nM | 5 nM | 6 nM |
| COc1ccccc1-c1noc(-c2ccc(N3CCCCC3C)c(C(F)(F)F)c2)n1 (stereo not drawn) [Compound I35, 1-[4-[3-(2-methoxyphenyl)-1,2,4-oxadiazol-5-yl]-2-(trifluoromethyl)phenyl]-2-methylpiperidine] | 650 nM | 3 nM | 2 nM |
| Cc1cc(-c2nc(-c3ccccc3OC(F)(F)F)no2)ccc1-c1cscc1C [Compound I44, 5-[3-methyl-4-(4-methyl-3-thienyl)phenyl]-3-[2-(trifluoromethoxy)phenyl]-1,2,4-oxadiazole] | > 20000 nM | 5 nM | 3 nM |
| COc1ccccc1-c1noc(-c2ccc(-c3cscc3C)c(OC)c2)n1 [Compound I48, 5-[3-methoxy-4-(4-methyl-3-thienyl)phenyl]-3-(2-methoxyphenyl)-1,2,4-oxadiazole] | 2180 nM | 4 nM | 5 nM |
| Cc1ccccc1-c1ccc(-c2nc(-c3ccccc3OC(F)(F)F)no2)cc1C(F)(F)F [Compound I55, 5-[2′-methyl-2-(trifluoromethyl)biphenyl-4-yl]-3-[2-(trifluoromethoxy)phenyl]-1,2,4-oxadiazole] | > 30000 nM | 8 nM | 2 nM |
| COc1ccccc1-c1noc(-c2ccc(-c3cscc3C)c(C(F)(F)F)c2)n1 [Compound I57, 3-(2-methoxyphenyl)-5-[4-(4-methyl-3-thienyl)-3-(trifluoromethyl)phenyl]-1,2,4-oxadiazole] | > 20000 nM | 2 nM | 1 nM |
| COc1ccc(F)cc1-c1noc(-c2ccc(N3CCCCC3)c(C(F)(F)F)c2)n1 [Compound I60, 1-[4-[3-(5-fluoro-2-methoxyphenyl)-1,2,4-oxadiazol-5-yl]-2-(trifluoromethyl)phenyl]piperidine] | 617 nM | 1 nM | 2 nM |
| COc1ccc(F)cc1-c1noc(-c2ccc(N3CCCCC3C)c(C(F)(F)F)c2)n1 (stereo not drawn) [Compound I63, 1-[4-[3-(5-fluoro-2-methoxyphenyl)-1,2,4-oxadiazol-5-yl]-2-(trifluoromethyl)phenyl]-2-methylpiperidine] | 125 nM | 3 nM | 1 nM |
| COc1ccc(F)cc1-c1noc(-c2ccc(N3CCCCC3C)c(C#N)c2)n1 (stereo not drawn) [Compound I71, 5-[3-(5-fluoro-2-methoxyphenyl)-1,2,4-oxadiazol-5-yl]-2-(2-methylpiperidin-1-yl)benzonitrile] | 74 nM | 4 nM | 1 nM |
| COc1ccc(F)cc1-c1noc(-c2ccc(N3CCCCC3C)c(NS(C)(=O)=O)c2)n1 (stereo not drawn) [Compound I72, N-[5-[3-(5-fluoro-2-methoxyphenyl)-1,2,4-oxadiazol-5-yl]-2-(2-methylpiperidin-1-yl)phenyl]methanesulfonamide] | > 20000 nM | 46 nM | 8 nM |
| COc1ccc(F)cc1-c1noc(-c2ccc(-c3ccccc3C)c(CO)c2)n1 [Compound I77, {4-[3-(5-fluoro-2-methoxyphenyl)-1,2,4-oxadiazol-5-yl]-2′-methylbiphenyl-2-yl}methanol] | 5610 nM | 53 nM | 65 nM |
| COc1ccc(F)cc1-c1noc(-c2ccc(-c3ccccc3C)c(CN(C)C)c2)n1 [Compound I78, 1-{4-[3-(5-fluoro-2-methoxyphenyl)-1,2,4-oxadiazol-5-yl]-2′-methylbiphenyl-2-yl}-N,N-dimethylmethanamine] | 92 nM | 4 nM | 2 nM |

— US8889668B2, “Oxadiazole diaryl compounds” (Merck Serono SA, priority 2007, dated 2014)
